# Activity calls are given as the source filed them. No cut-off for these calls is given here.
# Assays:
# [1] = molecular target: T1, DNA repair protein RAD52 homolog (Homo sapiens, UniProt P43351); assay: Inhibition of RAD52 (unknown origin) assessed as reduction in RAD52-ssDNA interaction using Cy3-dT30-Cy5 ssDNA by FRET assay
# T1 sequence (P43351 whole entry): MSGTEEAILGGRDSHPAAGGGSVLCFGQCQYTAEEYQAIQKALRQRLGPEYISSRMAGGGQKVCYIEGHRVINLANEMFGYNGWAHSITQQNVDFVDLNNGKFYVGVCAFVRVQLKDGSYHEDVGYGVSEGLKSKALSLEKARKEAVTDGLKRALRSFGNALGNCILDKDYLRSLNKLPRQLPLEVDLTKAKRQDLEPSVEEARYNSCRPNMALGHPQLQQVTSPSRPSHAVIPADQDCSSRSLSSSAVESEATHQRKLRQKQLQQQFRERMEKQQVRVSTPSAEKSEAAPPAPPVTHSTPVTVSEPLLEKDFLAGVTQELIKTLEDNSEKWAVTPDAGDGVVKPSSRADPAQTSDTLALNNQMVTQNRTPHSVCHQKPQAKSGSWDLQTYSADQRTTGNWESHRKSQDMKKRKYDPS
# [2] = Solubility in 30 mM Tris-acetate buffer pH 7.5 in presence of 1 mM DTT at 115 uM; type: physicochemical; details: pH 7.5, 115 µM
# [3] = Solubility in 30 mM Tris-acetate buffer pH 7.5 in presence of 1 mM DTT at 10 uM; type: physicochemical; details: pH 7.5, 10 µM
# [4] = Solubility in DMSO at 25 mM; type: physicochemical; details: 25000 µM
# [5] = molecular target: T1, DNA repair protein RAD52 homolog; assay: Inhibition of RAD52 (unknown origin) assessed as effect on RAD52-mediated annealing of complementary oligonucleotides using T-28 ssDNA substrate by FRET assay
# Homo sapiens [6] = species on record: Homo sapiens; assay: Binding affinity to RPA (unknown origin) assessed as effect on RPA-ssDNA interaction by water-logsy NMR method
# [7] = molecular target: T2, DNA repair protein RAD52 homolog (Homo sapiens) (UniProt P43351); assay: Inhibition of RAD52 (unknown origin) assessed as reduction in RAD52-dsDNA interaction by FRET assay
# T2 sequence (whole entry): T1 sequence (P43351 whole entry)
# Homo sapiens [8] = species on record: Homo sapiens; assay: Binding affinity to RPA (unknown origin) by water-logsy NMR method
# [9] = molecular target: T2, DNA repair protein RAD52 homolog (Homo sapiens); assay: Binding affinity to RAD52 (unknown origin) by water-logsy NMR method
# [10] = molecular target: T2, DNA repair protein RAD52 homolog (Homo sapiens); assay: Induction of protein aggregation of RAD52 (unknown origin) by dynamic light scattering assay
# Homo sapiens [11] = species on record: Homo sapiens; assay: Induction of anaphase bridge accumulation in checkpoint deficient HU-treated in hTERT-immortalized wild-type human GM01604 cells assessed as decrease in MUS81/EME1/RAD52-dependent DSB formation by measuring mean tail moment in presence of […] by neutral comet assay; type: functional
# Homo sapiens [12] = species on record: Homo sapiens; assay: Inhibition of RAD52 (unknown origin) interaction with RPA (unknown origin)
# [13] = molecular target: T2, DNA repair protein RAD52 homolog (Homo sapiens); assay: Inhibition of RAD52 in checkpoint deficient HU-treated in hTERT-immortalized wild-type human GM01604 fibroblasts assessed as decrease in MUS81/EME1/RAD52-dependent DSB formation by measuring mean tail moment in presence of […] by neutral comet assay
# [14] = molecular target: T2, DNA repair protein RAD52 homolog (Homo sapiens); assay: Effect on oligomeric ring of RAD52 (unknown origin) by dynamic light scattering assay
# [15] = molecular target: T2, DNA repair protein RAD52 homolog (Homo sapiens); assay: Inhibition of RAD52 in checkpoint deficient in hTERT-immortalized wild-type human GM01604 fibroblasts assessed as decrease in MUS81/EME1/RAD52-dependent DSB formation by measuring mean tail moment in presence of […] in presence of RAD52 siRNA by neutral comet assay
# Homo sapiens [16] = species on record: Homo sapiens; assay: Binding affinity to RPA (unknown origin) at 40 uM by water-logsy NMR method
# [17] = molecular target: T2, DNA repair protein RAD52 homolog (Homo sapiens); assay: Inhibition of RAD52 in checkpoint deficient HU-treated in hTERT-immortalized wild-type human GM01604 fibroblasts assessed as decrease in MUS81/EME1/RAD52-dependent DSB formation by measuring mean tail moment at 500 nM in presence of […] by neutral comet assay
# [18] = molecular target: T2, DNA repair protein RAD52 homolog (Homo sapiens); assay: Inhibition of RAD52 in checkpoint deficient HU-treated in hTERT-immortalized wild-type human GM01604 fibroblasts assessed as inhibiting RAD52-MUS81-dependent DSBs at stalled replication forks in presence of […] by neutral comet assay
# Homo sapiens [19] = species on record: Homo sapiens; assay: Binding affinity to RPA (unknown origin) assessed as effect on RPA-ssDNA interaction at 40 uM by water-logsy NMR method
# [20] = molecular target: T2, DNA repair protein RAD52 homolog (Homo sapiens); assay: Inhibition of RAD52 (unknown origin) assessed as reduction in RAD52-ssDNA interaction using Cy3-dT30-Cy5 ssDNA in presence of 0.01% Triton-X100 by FRET assay
# Homo sapiens [21] = species on record: Homo sapiens; assay: Binding affinity to RPA (unknown origin) assessed as effect on RPA-ssDNA interaction at 20 uM by water-logsy NMR method
# [22] = molecular target: T2, DNA repair protein RAD52 homolog (Homo sapiens); assay: Inhibition of RAD52 in hTERT-immortalized wild-type human GM01604 fibroblasts in presence of BRCA2 siRNA NA RAD52 siRNA assessed as potentiation of HU-induced cell death by Live/Dead assay relative to control
# [23] = molecular target: T2, DNA repair protein RAD52 homolog (Homo sapiens); assay: Inhibition of RAD52 in hTERT-immortalized wild-type human GM01604 fibroblasts with MUS81 knockdown assessed as potentiation of HU and UCN01-induced cell death by Live/Dead assay
# [24] = molecular target: T2, DNA repair protein RAD52 homolog (Homo sapiens); assay: Inhibition of RAD52 in hTERT-immortalized wild-type human GM01604 fibroblasts assessed as cell death at 1 uM relative to control; parameters: scale not given: the % may be the effect or the level left
# [25] = molecular target: T2, DNA repair protein RAD52 homolog (Homo sapiens); assay: Inhibition of RAD52 in hTERT-immortalized wild-type human GM01604 fibroblasts with BRCA2 knockdown assessed as potentiation of HU and UCN01-induced cell death by Live/Dead assay
# [26] = molecular target: T2, DNA repair protein RAD52 homolog (Homo sapiens); assay: Binding affinity to RAD52 (unknown origin) at 20 uM by water-logsy NMR method
# Homo sapiens [27] = species on record: Homo sapiens; assay: Binding affinity to RPA (unknown origin) at 20 uM by water-logsy NMR method
smiles,measurement,setting,value
O=c1c2ccccc2nc(CSc2[nH]cnc3ncnc2-3)n1-c1cccc(C(F)(F)F)c1,IC50,[1],Nd(Insoluble)
same,solubility,[2],Insoluble
CC(C)(O)C1Cc2cc3ccc(=O)oc3cc2O1 (stereo not drawn),IC50,[1],Not Active
CCOc1cc(C(Nc2cc(C)ccn2)c2ccc3ccc(C)nc3c2O)ccc1OC (stereo not drawn),IC50,[1],Nd(Insoluble)
same,solubility,[3],Insoluble
CCOc1ccccc1NC(=O)c1c(NC(=O)Cc2ccc(OC)cc2)sc2c1CCC2,IC50,[1],Nd(Insoluble)
same,solubility,[4],Insoluble
CC1(C)C(=O)C=C[C@@]2(C)C1=C(O)C(=O)[C@]1(C)[C@@H]2CC[C@@]2(C)[C@H](c3ccoc3)C[C@H]3O[C@]321 [CEDRELONE],IC50,[5],Not Active
COc1cc(N)c(Cl)cc1C(=O)N[C@H]1CCN(CCCOc2ccc(F)cc2)C[C@H]1OC.O,IC50,[5],Not Active
O=C(O[C@@H]1O[C@@H]2COC(=O)c3cc(O)c(O)c(O)c3-c3c(cc(O)c(O)c3O)C(=O)O[C@H]([C@H]1O)[C@@H]2O)c1cc(O)c(O)c(O)c1,Activity,Homo sapiens [6],inactive
same,inhibition,[7],inactive
same,Activity,Homo sapiens [8],Active
same,Activity,[9],Active
O=C(O[C@@H]1Cc2c(O)cc(O)cc2O[C@@H]1c1cc(O)c(O)c(O)c1)c1cc(O)c(O)c(O)c1,Activity,[10],inactive
same,Activity,Homo sapiens [11],inactive
same,inhibition,Homo sapiens [12],inactive
same,inhibition,[13],Dose-dependent effect
same,Activity,[14],inactive
same,inhibition,[15],Active
same,Activity,Homo sapiens [16],Active
same,inhibition,[17],Active
same,inhibition,[18],Active
same,Activity,Homo sapiens [19],inactive
same,inhibition,[20],Active
NCCc1cc(O)c(O)cc1O [OXIDOPAMINE],IC50,[5],Not Active
CN(C)[C@@H]1C(O)=C(C(=O)NCN2CCCC2)C(=O)[C@@]2(O)C(O)=C3C(=O)c4c(O)cccc4[C@@](C)(O)[C@H]3C[C@@H]12 [ROLITETRACYCLINE],IC50,[5],Not Active
Oc1cc(O)c2c(c1)O[C@H](c1cc(O)c(O)c(O)c1)[C@H](O)C2,Activity,[10],inactive
same,Activity,Homo sapiens [21],inactive
same,Activity,Homo sapiens [11],inactive
same,inhibition,[22],Active
same,inhibition,Homo sapiens [12],inactive
same,inhibition,[13],Dose-dependent effect
same,Activity,[14],inactive
same,inhibition,[15],Active
same,inhibition,[23],Active
same,Activity,[24],40%
same,inhibition,[17],Active
same,inhibition,[25],Active
same,inhibition,[18],Active
same,Activity,[26],Active
same,Activity,Homo sapiens [27],inactive
same,inhibition,[20],Active
Oc1cc(O)c2c(c1)O[C@H](c1ccc(O)c(O)c1)[C@H](O)C2 [(-)-EPICATECHIN],IC50,[5],Not Active
